{"source": "patent US12076330B2", "about": "“Inhibition of lipofuscin aggregation by molecular tweezers” (The Regents of the University of California, priority 2018, dated 2024)", "format_in_all_cases": "cell-based, human", "key": {"[1]": {"system": "lysosomes (LAMP-1) in ARPE-19 cells", "test": "Confocal imaging of lipofuscin A2E and LAMP-1 in ARPE-19 cells", "protocol": "(§1) Panel A) CLR01 in PBS and lipofuscin A2E were added to the cells at the indicated times. Cells were incubated up to 6 h in all cases and were imaged using a fluorescence microscope for visualization of lipofuscin autofluorecence (red) and cell nuclei (DAPI, blue). Panel B) Quantification of the data shown in panel A (N=15 per condition). C) Confocal microscopy images showing that lipofuscin colocalizes with the Lysosomal-membrane marker lamp1."}, "[2]": {"system": "lipofuscin (A2E) aggregation in ARPE-19 cells (retinal pigmented epithelium)", "test": "Lipofuscin A2E accumulation/aggregation in ARPE-19 cells, fluorescence microscopy after 6 h", "protocol": "as §1\nTo test the effect of CLR01 on lipofuscin aggregation, human, ARPE-19 cells (retinal pigmented epithelium; RPE) were treated with lipofuscin (A2E) in the absence or presence of CLR01 and imaged by fluorescence microscopy at the end of 6 h of incubation (FIG. 1, panel A), as follows: • Condition 1—negative control—20 μl of PBS was added to the cells at t=0 and 20 μl of DMSO at t=1.5 h. • Condition 2—safety control—CLR01 in PBS at final concentration of 100 μM was added to the cells at t=0 and DMSO at t=1.5 h. • Condition 3—positive control—PBS was added to the cells at t=0 and lipofuscin A2E in DMSO at final concentration of 100 μM at t=1.5 h. Lipofuscin A2E is a specific type of lipofuscin enriched in N-retinylidene-N-retinylethanolamine (A2E), which is derived from 11-cis-retinal and accumulates in the retinal pigmented epithelium (Boyer et al. (2012) J. Biol. Chem. 287: 22276-22286). • Condition 4—CLR01 in PBS at final concentration of 100 μM was added to the cells at t=0, after 1.5 h, the media was removed, the cells were washed with F12 medium, and new media was added. Lipofuscin A2E in DMSO at final concentration of 100 μM was added at t=1.5 h. • Condition 5—Lipofuscin A2E in DMSO was added to the cells at t=0 and CLR01 in PBS at final concentration of 100 μM was added at t=1 h."}, "[3]": {"system": "pre-formed lipofuscin (A2E) aggregates in ARPE-19 cells", "test": "Effect on pre-formed lipofuscin aggregates in ARPE-19 cells (A2E 10 h, wash, CLR01 12 h)", "conditions": "A2E 100 μM for 10 h, CLR01 100 μM for 12 h", "protocol": "FIG. 2, panel A) CLR01 in PBS and lipofuscin A2E were added to the cells at the indicated times. Cells were incubated up to 22 hours in all cases and were imaged using a fluorescence microscope for visualization of lipofuscin autofluorecence (red) and cell nuclei (DAPI, blue). FIG. 2, panel B) Quantification of the data shown in […] (N=15 per condition). Condition 1—negative control—20 μl of DMSO was added to the cells at t=0. After 10 h, the media was removed, the cells were washed with F12 medium, and new media was added. Condition 2—positive control—Lipofuscin A2E in DMSO at final concentration of 100 μM was added to the cells at t=0. After 10 h, the media was removed, the cells were washed with F12 medium, and new media was added. Condition 3—Lipofuscin A2E in DMSO was added to the cells at t=0. After 10 h, the media was removed, the cells were washed with F12 medium, and new media was added. CLR01 in PBS at final concentration of 100 μM was added at t=10 h.\nThe effect of CLR01 on pre-formed lipofuscin aggregates was tested as well. Human, ARPE-19 cells were treated with lipofuscin (A2E) for 10 h (to let lipofuscin aggregates form). Upon washing the cells to remove A2E from the media, CLR01 was added to the medium for an additional period of 12 h. Cells were then imaged by fluorescence microscopy and fluorescence quantified (FIG. 2). […]"}}, "note": "Entries after “also recorded” stand apart in the source; their conditions may differ.", "data": [{"substance": "CLR01", "values": [{"measurement": "lysosome integrity", "setting": "[1]", "value": "lysosome integrity was not affected"}, {"measurement": "inhibition of lipofuscin accumulation and aggregation (overall finding)", "setting": "[2]; ARPE-19 retinal cells, CLR01 100 μM, lipofuscin A2E 100 μM", "value": "inhibits lipofuscin accumulation and aggregation; also recorded: powerfully inhibits the formation of lipofuscin aggregates"}, {"measurement": "harm to the cells (safety control)", "setting": "[2]; condition 2: CLR01 100 μM at t=0, DMSO at t=1.5 h, no A2E, ARPE-19 cells, 6 h", "value": "did not harm the cells"}, {"measurement": "reduction of the accumulation of lipofuscin aggregates at 6 h", "setting": "[2]; condition 4: CLR01 100 μM at t=0, washed out after 1.5 h, then lipofuscin A2E 100 μM, ARPE-19 cells, 6 h", "value": "~60", "unit": "%"}, {"measurement": "accumulation of lipofuscin aggregates", "setting": "[2]; condition 5: lipofuscin A2E at t=0, CLR01 100 μM added at t=1 h, ARPE-19 cells, 6 h", "value": "reduced almost to the negative-control level"}, {"measurement": "clearing effect compared with condition 5 of FIG. 1 (CLR01 added simultaneously with lipofuscin loading)", "setting": "[3]", "value": "lower"}]}]}
